Earlier results as cited in patent US8609693B2, “Methods of administration of thrombopoietin agonist compounds” (GlaxoSmithKline LLC, priority 2009, dated 2013).

Test system: platelet counts
Conditions: 50 mg, 75 mg and 100 mg dose; patients receiving carboplatin/paclitaxel

For `CC1=NN(c2ccc(C)c(C)c2)C(=O)/C1=N\Nc1cccc(-c2cccc(C(=O)O)c2)c1O` [Compound B, 3′-[(2Z)-[1-(3,4-dimethylphenyl)-1,5-dihydro-3-methyl-5-oxo-4H-pyrazol-4-ylidene]hydrazino]-2′-hydroxy-[1,1′-biphenyl]-3-carboxylic acid], which “target platelet improvement counts” value is on record?
Its value is “not meet the target platelet improvement counts”.
